From US20250380696A1, “METHOD FOR CONTROLLING UNDESIRED PLANTS AND PROMOTING GROWTH OF USEFUL PLANTS” (ISHIHARA SANGYO KAISHA, LTD., priority 2022, published 2025)

Experiments:
Assay type in all cases: in vivo
[1] = system: wheat (cultivar: Norin 61); assay: (22) Plant growth promotion effect test (wheat), Italian ryegrass sown; conditions: 21st day after the sowing, above-ground part
Description: Upland soil was put in a 1/1,000,000 hectare pot, and seeds of Italian ryegrass (Lolium multiflorum) were sown. When the Italian ryegrass reached 2.5 to 2.8 leaf stage, a water-based suspension containing tiafenacil as the active ingredient, prepared by a conventional method for preparing a water-based suspension, and a wettable powder containing tri-allate as the active ingredient, prepared by a conventional method for preparing a wettable powder, were diluted with water (in an amount corresponding to 200 liter per hectare) containing 0.5 vol % of an agricultural spreader (tradename: Destiny HC, manufactured by Winfield Solutions, LLC.) and sprayed by a small spray gun (model: W-101-132G, manufactured by ANEST IWATA Corporation). Seeds of wheat (cultivar: Norin 61, manufactured by Asahi Noen Seed Co., Ltd.) were sown in the pot after spraying. On the 21st day after the sowing, the above-ground part of the wheat was reaped, and its weight was measured to obtain the raw weight.

[2] = system: Italian ryegrass (Lolium multiflorum); assay: (6) Herbicidal effect test, pot, spray at 2.5 to 3.0 leaf stage; conditions: 14th day after spraying
Source text: (§1) [formula] • X: growth inhibition rate when treated with α (g/ha) of compound A, • Y: growth inhibition rate when treated with β (g/ha) of compound B, • E: growth inhibition rate expected when treated with α (g/ha) of compound A and β (g/ha) of compound B (expected value).
(§2) Upland soil was put in a 1/1,000,000 hectare pot, and seeds of Italian ryegrass (Lolium multiflorum) were sown. When the Italian ryegrass reached 2.5 to 3.0 leaf stage, a water-based suspension containing tiafenacil as the active ingredient, prepared by a conventional method for preparing a water-based suspension, and water dispersible granules containing pyroxasulfone as the active ingredient (tradename: Sakura, manufactured by Bayer Crop Science) were diluted with water (in an amount corresponding to 200 liter per hectare) containing 0.5 vol % of an agricultural spreader (tradename: Destiny HC, manufactured by Winfield Solutions, LLC.) and sprayed by a small spray gun (model: W-101-132G, manufactured by ANEST IWATA Corporation). On the 14th day after spraying, the state of growth of the Italian ryegrass was visually observed, and the growth inhibition rate (%) was obtained in accordance with the evaluation standards described in the above (1) herbicidal effect test, and the results are shown in Table 6. Further, the expected value of the growth inhibition rate (%) was calculated in accordance with the Colby's formula described in the above (1) herbicidal effect test, and the results are also shown in Table 6.

[3] = system: Italian ryegrass (Lolium multiflorum); assay: (3) Herbicidal effect test, pot, spray at 2.8 to 3.2 leaf stage; conditions: 7th day after spraying
Source text: as §1
Upland soil was put in a 1/1,000,000 hectare pot, and seeds of Italian ryegrass (Lolium multiflorum) were sown. When the Italian ryegrass reached 2.8 to 3.2 leaf stage, a water-based suspension containing tiafenacil as the active ingredient, prepared by a conventional method for preparing a water-based suspension, and an emulsifiable concentrate containing S-metolachlor as the active ingredient (tradename: Dual Gold, manufactured by Syngenta), were diluted with water (in an amount corresponding to 200 liter per hectare) containing 0.5 vol % of an agricultural spreader (tradename: Destiny HC, manufactured by Winfield Solutions, LLC.) and sprayed by a small spray gun (model: W-101-132G, manufactured by ANEST IWATA Corporation). […] Further, the expected value of the growth inhibition rate (%) was calculated in accordance with the Colby's formula described in the above (1) herbicidal effect test, and the results are also shown in Table 3.

[4] = system: Italian ryegrass (Lolium multiflorum); assay: (2) Herbicidal effect test, pot, spray at 2.5 to 3.0 leaf stage; conditions: 16th day after spraying
Source text: as §1
as §2, with “an emulsifiable concentrate” for “water dispersible granules”, “S-metolachlor” for “pyroxasulfone”, “Dual Gold,” for “Sakura,”, “Syngenta),” for “Bayer Crop Science)”, “16th” for “14th”, “2.” for “6.”

[5] = system: forage corn (cultivar: SNOW DENT OTOHA); assay: (20) Plant growth promotion effect test (corn), Italian ryegrass sown; conditions: 33rd day after the sowing, above-ground part
Description: Upland soil was put in a 1/1,000,000 hectare pot, and seeds of Italian ryegrass (Lolium multiflorum) were sown. When the Italian ryegrass reached 2.7 to 3.0 leaf stage, a water-based suspension containing tiafenacil as the active ingredient, prepared by a conventional method for preparing a water-based suspension, and an emulsifiable concentrate containing dimethenamid-P as the active ingredient (tradename: Fieldstar P emulsifiable concentrate, manufactured by BASF) were diluted with water (in an amount corresponding to 200 liter per hectare) containing 0.5 vol % of an agricultural spreader (tradename: Destiny HC, manufactured by Winfield Solutions, LLC.) and sprayed by a small spray gun (model: W-101-132G, manufactured by ANEST IWATA Corporation). Seeds of forage corn (cultivar: SNOW DENT OTOHA, manufactured by SNOW BRAND SEED Co., Ltd.) were sown in the pot after spraying. On the 33rd day after the sowing, the above-ground part of the forage corn was reaped, and its weight was measured to obtain the raw weight.

For `CC(C)N(C(=O)SCC(Cl)=C(Cl)Cl)C(C)C` [tri-allate], the “Raw weight (g) of wheat” value ([1]; Dose 200 g/ha) was 2.3 g.

`Cn1nc(C(F)(F)F)c(CS(=O)(=O)C2=NOC(C)(C)C2)c1OC(F)F` [pyroxasulfone] was tested, and the inhibition at 15 g/ha ([2]; Lolium multiflorum, Dose 15 g/ha, read-out: Growth inhibition rate (%) Measured value) was 0%, the inhibition at 30 g/ha ([2]; Lolium multiflorum, Dose 30 g/ha, read-out: Growth inhibition rate (%) Measured value) was 5% and the inhibition at 125 g/ha ([2]; Lolium multiflorum, Dose 125 g/ha, read-out: Growth inhibition rate (%) Measured value) was 35%. The inhibition at 250 g/ha ([2]; Lolium multiflorum, Dose 250 g/ha, read-out: Growth inhibition rate (%) Measured value) was 42%, the inhibition at 500 g/ha ([2]; Lolium multiflorum, Dose 500 g/ha, read-out: Growth inhibition rate (%) Measured value) was 67% and the inhibition at 1000 g/ha ([2]; Lolium multiflorum, Dose 1000 g/ha, read-out: Growth inhibition rate (%) Measured value) was 72%.

With `COC(=O)CCNC(=O)C(C)Sc1cc(-n2c(=O)cc(C(F)(F)F)n(C)c2=O)c(F)cc1Cl` (stereo not drawn) [tiafenacil] the “Growth inhibition rate (%) Measured value” ([2]; Dose 12.5 g/ha) was 63%, the “Growth inhibition rate (%) Measured value” ([3]; Dose 12.5 g/ha) was 53% and the “Growth inhibition rate (%) Measured value” ([4]; Dose 12.5 g/ha) was 30%. For the same molecule, the “Raw weight (g) of wheat” value ([1]; Dose 3 g/ha) was 2.2 g and the “Raw weight (g) of forage corn” value ([5]; Dose 6.25 g/ha) was 12.1 g.

With `COC[C@H](C)N(C(=O)CCl)c1c(C)csc1C` [dimethenamid-P] the “Raw weight (g) of forage corn” value ([5]; Dose 60 g/ha) was 9.8 g, the “Raw weight (g) of forage corn” value ([5]; Dose 375 g/ha) was 12.5 g and the “Raw weight (g) of forage corn” value ([5]; Dose 750 g/ha) was 8.0 g.

For `CCc1cccc(C)c1N(C(=O)CCl)[C@@H](C)COC` [S-metolachlor], the “Growth inhibition rate (%) Measured value” ([3]; Dose 15.6 g/ha) was 0%, the “Growth inhibition rate (%) Measured value” ([4]; Dose 62.5 g/ha) was 0% and the “Growth inhibition rate (%) Measured value” ([4]; Dose 125 g/ha) was 0%. The “Growth inhibition rate (%) Measured value” ([4]; Dose 750 g/ha) was 7%, the “Growth inhibition rate (%) Measured value” ([4]; Dose 1500 g/ha) was 55% and the “Growth inhibition rate (%) Measured value” ([4]; Dose 3000 g/ha) was 73%.
